One data set deals with Huh7, Mahlavu and MCF7. The experiment in a line: SRB cytotoxicity, summary for all three cell lines. In kind it is cell-based. The conditions noted are these: Homo sapiens; one value or range for Huh7, Mahlavu and MCF7 together; read-out: IC50 against all three cell lines. As to the method: (§1) Mahlavu, FOCUS, SNU475 (1000 cell/well in 150 μL/well); Huh7, MCF7 (2500 cell/well in 150 μL/well); HepG2, Hep3B, SKBR3 (3000 cell/well in 150 μL/well); PLC-PRF-5, Hep40 (5000 cell/well in 150 μL/well); MDA-MB-231, MDA-MB-468, MCF10A (6000 cell/well in 150 μL/well); and ZR-75 (7500 cell/well in 150 μL/well) were cultured in 96-well plates and were inoculated in an incubator for 24 hours. The compounds were dissolved in dimethyl sulfoxide (DMSO) (Sigma, St Louis, MO) as a 20 mM stock solution. The treatment of cells with the compounds was done in a concentration range starting from 40 to 2.5 μM. The compounds which were below 2.5 μM were tested in a concentration range from 2.5 to 0.15 μM. End of the 72h compound treatment, the cells were fixed using 10% (v/v) trichloroacetic acid (MERCK) for an hour and washed with ddH2O, and left for air-drying. The fixed plates were stained with 50 μL of sulforhodamine B (SRB) solution (Sigma) at RT for 10 min. To remove unbound SRB dye, acetic acid was used to wash cells three times and left for drying. The protein-bound SRB was solubilized with 10 mM Tris-base (Sigma) and their absorbance was measured with a 96-well plate reader at 515 nm wavelength (ELx800, Biotek). The IC50 values of compounds were calculated in comparison with control group DMSO. Data with R^2 values larger than 0.9 are considered significant.

For the next data set, the system named is Mahlavu. The experiment in a line: SRB cytotoxicity assay. The conditions noted are these: 72 h treatment. In kind it is cell-based, human. As to the method:
(§2) HepG2, FOCUS, Hep3B, Mahlavu, Huh7, Hep40, and PLC-PRF-5 hepatocellular carcinoma cells; MCF-7, MDA-MB-231, MDA-MB-468, SKBR3, and ZR-75 breast cancer cells; and normal-like epithelial MCF-10A breast cells were cultured in low-glucose Dulbecco’s modified Eagle’s medium (DMEM) (Biological Industries-BI) supplemented with 10% fetal bovine serum (FBS) (Gibco/Thermo Fisher Scientific), 2 mM L-Glutamine (Gibco/Thermo Fisher Scientific), 100 Units/mL Penicillin/Streptomycin, and 0.1 mM non-essential amino acid (Gibco/Thermo Fisher Scientific). SNU475 hepatocellular carcinoma cells were maintained in RPMI (Biological Industries-BI) supplemented with 10% fetal bovine serum (FBS) (Gibco/Thermo Fisher Scientific), L-Glutamine (Gibco/Thermo Fisher Scientific), and 100 Units/mL Penicillin/Streptomycin, while ZR-75 breast cancer cells were cultured RPMI (Biological Industries-BI) supplemented with 10% fetal bovine serum (FBS) (Gibco/Thermo Fisher Scientific), 1× sodium pyruvate, and %4.5 glucose. Normal-like MCF-10A breast cells were sustained in DMEM/HAM’S F12 (Hyclone) supplemented with 10% fetal bovine serum (FBS) (Gibco/Thermo Fisher Scientific), EGF (20 ng/mL), Hydrocortisone ([…]), cholera toxin (100 ng/mL), insulin (10 μg/mL), and 100 Units/mL Penicillin/Streptomycin. The cells were cultivated at 37 °C in a humidified incubator under 5% CO2.
as §1
(In general: The SRB assay estimates cell density from bound dye.)

For a further data set, the system named is MCF7. The experiment in a line: SRB cytotoxicity assay. The conditions noted are these: 72 h treatment. The data set is classed as cell-based, human. As to the method:
as §2, §1

Another data set deals with Huh7. The experiment in a line: SRB cytotoxicity assay. The data set is classed as cell-based, human. The conditions noted are these: 72 h treatment. As to the method:
as §2, §1

A further data set deals with Huh7 and MCF7. The experiment in a line: SRB cytotoxicity, summary for both cell lines. The conditions noted are these: Homo sapiens; one value or range for Huh7 and MCF7 together; read-out: IC50 against both cell lines. In kind it is cell-based. The procedure: as §1

On to `Cc1cc(-c2ccc(OCc3ccccc3C)cc2)n(-c2ccc(Cl)cc2)n1` [compound 69, 1-(4-Chlorophenyl)-3-methyl-5-(4-((2-methylbenzyl)oxy)phenyl)-1H-pyrazole], for which the melting point lay in the range of 111.8 to 113.6 °C. For the same compound, the IC50 in the data set on Huh7, Mahlavu and MCF7 fell in the range of 0.7 to 14.4 µM. The compound also yielded an IC50 with Mahlavu (Homo sapiens, Mahlavu, 72 h) of 9.2 µM. This compound also yielded an IC50 in the data set with MCF7 (Homo sapiens, MCF7, 72 h) of 11.9 µM. This compound also gave an IC50 in the data set with Huh7 (Homo sapiens, Huh-7, 72 h) of 2 µM.

As for `Cc1cc(-c2ccc(Cl)cc2)n(-c2ccc(OCc3ccccc3C)cc2)n1` [compound 79, 5-(4-Chlorophenyl)-3-methyl-1-(4-((2-methylbenyl)oxy)phenyl)-1H-pyrazole], the melting point fell in the range of 103.4 to 105.2 °C. In addition, the IC50 with Huh7, Mahlavu and MCF7 lay within 0.7 to 14.4 µM. This compound also returned an IC50 in the data set on Mahlavu (Homo sapiens, Mahlavu, 72 h) of 9.6 µM. In the data set with MCF7 (Homo sapiens, MCF7, 72 h), this compound came in with an IC50 of 11.8 µM. For the same compound, the IC50 with Huh7 (Homo sapiens, Huh-7, 72 h) is 3.9 µM.

`Cc1ccc(COc2ccc(-c3noc(C)c3-c3ccc(Cl)cc3)cc2)cc1` [compound 24, 4-(4-Chlorophenyl)-5-methyl-3-(4-((4-methylbenzyl)oxy)phenyl)isoxazole] gave a melting point of 116.9 to 118.5 °C. In the data set with MCF7 (Homo sapiens, MCF7, 72 h), this compound came in with an IC50 of over 20 µM. The compound further yielded an IC50 with Huh7 (Homo sapiens, Huh-7, 72 h) of over 20 µM. In addition, the IC50 in the data set on Huh7 and MCF7 is at least 20 µM.

`Cc1ccccc1COc1ccc(-c2[nH]ncc2-c2ccc(Cl)cc2)cc1` [compound 71, 4-(4-Chlorophenyl)-5-(4-((2-methylbenzyl)oxy)phenyl)-1H-pyrazole]: the melting point was in the range of 127.8 to 129.8 °C. In addition, in the data set on Huh7, Mahlavu and MCF7, the IC50 was 0.7 to 14.4 µM. The compound also yielded an IC50 in the data set with Mahlavu (Homo sapiens, Mahlavu, 72 h) of 11 µM. In addition, the IC50 in the data set on MCF7 (Homo sapiens, MCF7, 72 h) worked out at 17.5 µM. This compound returned an IC50 with Huh7 (Homo sapiens, Huh-7, 72 h) of 8.4 µM.

Regarding `Cc1ccccc1COc1ccc(-c2ccnn2-c2ccc(Cl)cc2)cc1F` [compound 89, 1-(4-Chlorophenyl)-5-(3-fluoro-4-((2-methylbenzyl)oxy)phenyl)-1H-pyrazole], the melting point fell in the range of 95 to 95.4 °C. Moreover, the IC50 in the data set with Mahlavu (Homo sapiens, Mahlavu, 72 h) is over 20 µM. Besides, the IC50 with MCF7 (Homo sapiens, MCF7, 72 h) was over 20 µM. In the data set on Huh7 (Homo sapiens, Huh-7, 72 h), this compound yielded an IC50 of over 20 µM.

For `Cc1nc(-c2ccc(OCc3ccccc3C)cc2)c(-c2ccc(Cl)cc2)s1` [compound 75, 5-(4-Chlorophenyl)-2-methyl-4-(4-((2-methylbenzyl)oxy)phenyl)thiazole], the melting point was in the range of 90.5 to 92.1 °C. The IC50 with Mahlavu (Homo sapiens, Mahlavu, 72 h) was over 20 µM. The same compound showed an IC50 in the data set with MCF7 (Homo sapiens, MCF7, 72 h) of over 20 µM. The IC50 in the data set with Huh7 (Homo sapiens, Huh-7, 72 h) is over 20 µM.

With `Cc1ccccc1COc1ccc(-c2ccnn2-c2ccc(Cl)cc2)cn1` [compound 87, 5-(1-(4-Chlorophenyl)-1H-pyrazol-5-yl)-2-((2-methylbenzyl)oxy)pyridine], the melting point is 126.5 to 127.8 °C. Also, in the data set with Mahlavu (Homo sapiens, Mahlavu, 72 h), the IC50 is over 20 µM. For the same compound, the IC50 with MCF7 (Homo sapiens, MCF7, 72 h) was over 20 µM. In addition, the IC50 in the data set with Huh7 (Homo sapiens, Huh-7, 72 h) was over 20 µM.

For `Cc1ccccc1COc1ccc(-c2oncc2-c2ccc(Cl)cc2)cc1` [compound 63, 4-(4-Chlorophenyl)-5-(4-((2-methylbenzyl)oxy)phenyl)isoxazole], the melting point lay in the range of 115.3 to 117.3 °C. The same compound showed an IC50 in the data set with Mahlavu of 20.1 µM. In addition, the IC50 in the data set with Mahlavu (Homo sapiens, Mahlavu, 72 h) is at least 20 µM. The compound further came in with an IC50 with MCF7 of over 20 µM. In the data set on MCF7 (Homo sapiens, MCF7, 72 h), this compound displayed an IC50 of at least 20 µM. In the data set with Huh7 (Homo sapiens, Huh-7, 72 h), the half-inhibitory concentration (IC50) was 1.5 µM.

Compound `Cc1ccccc1COc1ccc(-c2nn(C)cc2-c2ccc(Cl)cc2)cc1` [compound 72, 4-(4-Chlorophenyl)-1-methyl-3-(4-((2-methylbenzyl)oxy)phenyl)-1H-pyrazole] showed a melting point of 142.2 to 143.4 °C. The half-maximal inhibitory concentration (IC50) with Huh7, Mahlavu and MCF7 was 0.7 to 14.4 µM. The compound also returned an IC50 in the data set with Mahlavu (Homo sapiens, Mahlavu, 72 h) of 12 µM. In addition, half-maximal inhibition in the data set with MCF7 (Homo sapiens, MCF7, 72 h) (IC50) required 14.4 µM. In addition, in the data set on Huh7 (Homo sapiens, Huh-7, 72 h), the IC50 was found to be 6.7 µM.

The compound `Cc1cccc(COc2ccc(-c3noc(C)c3-c3ccc(Cl)cc3)cc2)c1` [compound 19, 4-(4-Chlorophenyl)-5-methyl-3-(4-((3-methylbenzyl)oxy)phenyl)isoxazole] yielded a melting point of 119.9 to 121 °C. This compound yielded an IC50 with MCF7 (Homo sapiens, MCF7, 72 h) of over 20 µM. In the data set on Huh7 (Homo sapiens, Huh-7, 72 h), this compound showed an IC50 of over 20 µM. Moreover, in the data set with Huh7 and MCF7, the IC50 was at least 20 µM.

Turning to `Cc1ccccc1COc1ccc(-c2noc(N)c2-c2ccc(Cl)cc2)cc1` [compound 65, 4-(4-Chlorophenyl)-3-(4-((2-methylbenzyl)oxy)phenyl)isoxazole-5-amine], the melting point fell in the range of 163.1 to 165.6 °C. In the data set on Huh7, Mahlavu and MCF7, the IC50 lay in the range of 2 to 3.9 µM. In the data set on Mahlavu (Homo sapiens, Mahlavu, 72 h), this compound displayed an IC50 of 3.9 µM. Moreover, half-maximal inhibition with MCF7 (Homo sapiens, MCF7, 72 h) (IC50) was put at 3.6 µM. For the same compound, the IC50 in the data set with Huh7 (Homo sapiens, Huh-7, 72 h) amounted to 2 µM.

The compound `Cc1ccccc1COc1ccc(-c2c(-c3ccc(Cl)cc3)noc2C)cc1` [compound 67, 3-(4-Chlorophenyl)-5-methyl-4-(4-((2-methylbenzyl)oxy)phenyl)isoxazole] gave a melting point of 84.5 to 86.5 °C. The IC50 with Huh7, Mahlavu and MCF7 is at least 20 µM. For the same compound, the IC50 in the data set on Mahlavu (Homo sapiens, Mahlavu, 72 h) is over 20 µM. The same compound registered an IC50 in the data set with MCF7 (Homo sapiens, MCF7, 72 h) of over 20 µM. In addition, in the data set with Huh7 (Homo sapiens, Huh-7, 72 h), the IC50 was over 20 µM.

Take `Cc1ccccc1COc1ccc(-c2ccnn2-c2ccc(Cl)cc2)c(F)c1` [compound 88, 1-(4-Chlorophenyl)-5-(2-fluoro-4-((2-methylbenzyl)oxy)phenyl)-1H-pyrazole]: the melting point was in the range of 131.8 to 132.8 °C. Besides, in the data set with Huh7, Mahlavu and MCF7, the IC50 was 1.6 to 6.4 µM. For the same compound, the midpoint of inhibition in the data set with Mahlavu (Homo sapiens, Mahlavu, 72 h), the IC50, lay at 3.2 µM. Also, the half-inhibitory concentration (IC50) in the data set on MCF7 (Homo sapiens, MCF7, 72 h) was 6.4 µM. In the data set with Huh7 (Homo sapiens, Huh-7, 72 h), this compound gave an IC50 of 1.6 µM.

Turning to `Cc1ccccc1COc1ccc(-c2onc(C)c2-c2ccc(Cl)cc2)cc1` [compound 60, 4-(4-Chlorophenyl)-3-methyl-5-(4-((2-methylbenzyl)oxy)phenyl)isoxazole], the melting point was in the range of 153.8 to 154.9 °C. In the data set on Mahlavu (Homo sapiens, Mahlavu, 72 h), this compound yielded a half-inhibitory concentration (IC50) of 9.4 µM. In the data set on MCF7, this compound gave an IC50 of 19.6 µM. Also, the IC50 in the data set on MCF7 (Homo sapiens, MCF7, 72 h) is about 19 µM. In the data set on Huh7 (Homo sapiens, Huh-7, 72 h), this compound had an IC50 of 3.8 µM.

`Cc1ccccc1CNc1ccc(-c2ccnn2-c2ccc(Cl)cc2)cc1` [compound 92, 4-(1-(4-Chlorophenyl)-1H-pyrazol-5-yl)-N-(2-methylbenzyl)aniline] returned a melting point of 141.5 to 142.8 °C. The compound further came in with an IC50 in the data set on Mahlavu (Homo sapiens, Mahlavu, 72 h) of 4.5 µM. In the data set with MCF7 (Homo sapiens, MCF7, 72 h), this compound returned an IC50 of over 20 µM. In addition, the IC50 in the data set on Huh7 (Homo sapiens, Huh-7, 72 h) stood at 3.6 µM.

Compound `Cc1onc(-c2ccc(OCc3ccccc3)cc2)c1-c1ccc(Cl)cc1` [compound 9, 3-(4-(Benzyloxy)phenyl)-4-(4-chlorophenyl)-5-methylisoxazole] displayed a melting point of 114.7 to 115.7 °C. Besides, in the data set on MCF7 (Homo sapiens, MCF7, 72 h), the IC50 is over 20 µM. Besides, the IC50 in the data set with Huh7 is over 20 µM. Also, the IC50 with Huh7 (Homo sapiens, Huh-7, 72 h) is at least 20 µM. Besides, in the data set on Huh7 and MCF7, the IC50 is at least 20 µM.

The term melting point denotes the temperature, or range, at which the solid turns liquid. By IC50 is commonly meant the midpoint of a concentration-inhibition curve.

These data come from article PMC9583322, “Vicinal Diaryl-Substituted Isoxazole and Pyrazole Derivatives with In Vitro Growth Inhibitory and In Vivo Antitumor Activity” (ACS Omega, 2022).
